This passage reports IC50 results from paper PMC7042063 (Chembiochem : a European journal of chemical biology, 2019).

Type in all cases: biochemical
Test [1] deals with T1, UCHL3 (Homo sapiens, UniProt P15374).
T1 sequence (P15374 1-230): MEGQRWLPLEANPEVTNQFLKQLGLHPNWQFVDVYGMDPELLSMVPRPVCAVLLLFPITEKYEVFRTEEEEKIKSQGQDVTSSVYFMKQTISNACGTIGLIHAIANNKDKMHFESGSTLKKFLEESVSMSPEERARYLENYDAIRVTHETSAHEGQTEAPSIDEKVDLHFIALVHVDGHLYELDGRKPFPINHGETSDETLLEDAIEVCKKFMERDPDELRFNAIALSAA
The experiment in a line: Ub-Rho cleavage assay, purified enzyme, […] min preincubation.

Test [2] deals with T2, Ubiquitin C-terminal Hydrolase L1 (UCHL1) (Homo sapiens, UniProt P09936).
T2 sequence (P09936 1-220): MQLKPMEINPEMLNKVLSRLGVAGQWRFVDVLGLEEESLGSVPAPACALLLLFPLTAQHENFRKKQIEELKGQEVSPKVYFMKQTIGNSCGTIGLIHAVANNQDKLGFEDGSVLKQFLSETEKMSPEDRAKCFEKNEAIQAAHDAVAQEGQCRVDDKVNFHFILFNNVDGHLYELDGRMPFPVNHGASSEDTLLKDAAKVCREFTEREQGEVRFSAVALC
The experiment in a line: inhibition IC50 of UCHL1.

Test [3] has as its target T1, UCHL3. The experiment in a line: Ub-Rho cleavage assay, purified enzyme.

Broadly, the IC50 is the point on the concentration scale where inhibition reaches its midpoint. Lower therefore signals inhibition by little substance.

`N#CN1CCC[C@H]1C(=O)N1CCc2c(-c3cn[nH]c3C(F)(F)F)cccc21` [compound 1, (S)-2-(4-(5-(trifluoromethyl)-1H-pyrazol-4-yl)indoline-1-carbonyl)pyrrolidine-1-carbonitrile] displayed an IC50 at UCHL3 [1] of 6.4 µM. On to `C#CCCn1cc(-c2cccc3c2CCN3C(=O)[C@@H]2CCCN2C#N)c(C(F)(F)F)n1` [compound 2, (S)-2-(4-(1-(but-3-yn-1-yl)-3-(trifluoromethyl)-1H-pyrazol-4-yl)indoline-1-carbonyl)pyrrolidine-1-carbonitrile], for which the results for the IC50 (in test [2]; at UCHL3 [3]) were 6.4 µM and 5.5 µM, respectively.
